Laboratory results: US20250376461A1, “INDAZOLE DERIVATIVES FOR TREATING TRPM3-MEDIATED DISORDERS” (Katholieke Universiteit Leuven, priority 2022, published 2025)

target: T1, mouse TRPM3α2 (mTRPM3) ion channel (Mus musculus, UniProt J9SQF3); assay: TRPM3 ion channel driven Ca2+ uptake, Fluo-4 AM assay, mTRPM3alpha2 overexpressing flip-in HEK293 cells stimulated with pregnenolone sulfate (50 μM); format: cell-based; details: mTRPM3 overexpressing HEK293 cells stimulated with pregnenolone sulfate (50 μM), activity ranges A, B, C
T1 construct: expressed in transfected cells; host or cells: flip-in HEK293
Outline: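 Ca2+ influx via mouse TRPM3α2 was opened with pregnenolone sulfate (50 μM) and tracked by Fluo-4 AM fluorescence at 485/535 nm, read directly after adding about 2000 stably transfected HEK293 cells per well to compound. IC50 values come from percent inhibition scaled to vehicle and positive-control inhibitor signals.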

T1 sequence (J9SQF3 1-1709 isoform J9SQF3-12): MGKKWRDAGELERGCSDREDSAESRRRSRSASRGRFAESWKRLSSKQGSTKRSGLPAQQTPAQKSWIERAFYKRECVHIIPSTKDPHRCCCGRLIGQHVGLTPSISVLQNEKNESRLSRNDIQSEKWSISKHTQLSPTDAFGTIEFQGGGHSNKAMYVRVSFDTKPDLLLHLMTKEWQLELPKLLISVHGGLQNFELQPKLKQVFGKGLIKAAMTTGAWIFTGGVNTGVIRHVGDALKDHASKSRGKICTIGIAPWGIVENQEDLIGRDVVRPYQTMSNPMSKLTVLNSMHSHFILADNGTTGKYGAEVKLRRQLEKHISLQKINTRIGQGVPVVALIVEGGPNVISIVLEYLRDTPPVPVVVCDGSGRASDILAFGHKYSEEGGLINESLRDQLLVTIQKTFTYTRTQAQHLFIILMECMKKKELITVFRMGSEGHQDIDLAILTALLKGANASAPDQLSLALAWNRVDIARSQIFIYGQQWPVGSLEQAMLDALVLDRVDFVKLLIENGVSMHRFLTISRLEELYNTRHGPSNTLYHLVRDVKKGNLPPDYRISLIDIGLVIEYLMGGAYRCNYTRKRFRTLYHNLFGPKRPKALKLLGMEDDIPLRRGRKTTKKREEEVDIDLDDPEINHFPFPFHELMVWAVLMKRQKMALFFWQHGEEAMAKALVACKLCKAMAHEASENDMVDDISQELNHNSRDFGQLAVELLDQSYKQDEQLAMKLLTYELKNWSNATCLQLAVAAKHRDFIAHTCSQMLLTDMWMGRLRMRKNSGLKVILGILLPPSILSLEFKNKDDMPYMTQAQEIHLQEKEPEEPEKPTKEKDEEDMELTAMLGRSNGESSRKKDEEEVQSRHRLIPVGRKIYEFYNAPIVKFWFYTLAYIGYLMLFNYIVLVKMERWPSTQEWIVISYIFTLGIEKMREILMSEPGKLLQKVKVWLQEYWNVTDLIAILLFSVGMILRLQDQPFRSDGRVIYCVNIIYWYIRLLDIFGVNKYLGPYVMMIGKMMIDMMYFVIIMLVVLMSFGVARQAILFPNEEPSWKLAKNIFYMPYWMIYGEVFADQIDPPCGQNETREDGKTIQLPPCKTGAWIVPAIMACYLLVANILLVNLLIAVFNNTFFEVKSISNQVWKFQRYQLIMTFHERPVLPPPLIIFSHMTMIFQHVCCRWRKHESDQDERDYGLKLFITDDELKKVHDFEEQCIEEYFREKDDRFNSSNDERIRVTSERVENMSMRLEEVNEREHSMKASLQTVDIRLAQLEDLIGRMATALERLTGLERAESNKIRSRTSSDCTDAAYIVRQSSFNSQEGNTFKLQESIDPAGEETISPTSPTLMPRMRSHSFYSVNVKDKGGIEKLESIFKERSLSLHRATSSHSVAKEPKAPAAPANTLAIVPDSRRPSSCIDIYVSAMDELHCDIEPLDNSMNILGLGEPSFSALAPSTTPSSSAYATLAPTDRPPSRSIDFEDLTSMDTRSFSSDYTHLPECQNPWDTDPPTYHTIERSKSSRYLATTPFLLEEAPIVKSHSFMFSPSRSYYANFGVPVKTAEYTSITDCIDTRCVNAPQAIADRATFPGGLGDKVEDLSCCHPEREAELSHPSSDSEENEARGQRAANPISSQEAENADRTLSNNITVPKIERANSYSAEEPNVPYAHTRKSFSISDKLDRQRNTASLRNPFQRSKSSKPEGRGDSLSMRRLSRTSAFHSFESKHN

| IC50 | SMILES |
| --- | --- |
| 1000 to 20000 nM | Cn1nc2ccc(OCc3cccnc3C(F)(F)F)cc2c1C(=O)NC1(CO)CC1 [Cpd 022, N-[1-(hydroxymethyl)cyclopropyl]-2-methyl-5-{[2-(trifluoromethyl)pyridin-3-yl]methoxy}-2H-indazole-3-carboxamide] |
| 1000 to 20000 nM | Cn1nc2ccc(OCc3ccccc3)cc2c1C(=O)NC(C)(C)CO [Cpd 023, 5-(benzyloxy)-N-(1-hydroxy-2-methylpropan-2-yl)-2-methyl-2H-indazole-3-carboxamide] |
| 1000 to 20000 nM | Cc1ncsc1COc1ccc2nn(C)c(C(=O)NCC(C)(C)CO)c2c1 [Cpd 024, N-(3-hydroxy-2,2-dimethylpropyl)-2-methyl-5-[(4-methyl-1,3-thiazol-5-yl)methoxy]-2H-indazole-3-carboxamide] |
| < 1000 nM | Cn1nc2ccc(OCc3ccccc3)cc2c1C(=O)NCc1cccc(O)n1 [Cpd 025, 5-(benzyloxy)-N-[(6-hydroxypyridin-2-yl)methyl]-2-methyl-2H-indazole-3-carboxamide] |
| < 1000 nM | Cn1nc2ccc(OCc3cccnc3C(F)(F)F)cc2c1C(=O)NC(CO)C(N)=O (stereo not drawn) [Cpd 026, 3-hydroxy-2-[(2-methyl-5-{[2-(trifluoromethyl)pyridin-3-yl]methoxy}-2H-indazol-3-yl)formamido]propanamide] |
| 1000 to 20000 nM | Cn1nccc1COc1ccc2nn(C)c(C(=O)NC(CO)C(N)=O)c2c1 (stereo not drawn) [Cpd 027, 3-hydroxy-2-({2-methyl-5-[(1-methyl-1H-pyrazol-5-yl)methoxy]-2H-indazol-3-yl}formamido)propanamide] |
| 1000 to 20000 nM | Cn1nc2ccc(OCc3cccnc3C(F)(F)F)cc2c1C(=O)NC1(CO)CCC1 [Cpd 028, N-[1-(hydroxymethyl)cyclobutyl]-2-methyl-5-{[2-(trifluoromethyl)pyridin-3-yl]methoxy}-2H-indazole-3-carboxamide] |
| 1000 to 20000 nM | Cn1nc2ccc(OCc3cccnc3C(F)(F)F)cc2c1C(=O)NC1(CO)CCOCC1 [Cpd 029, N-[4-(hydroxymethyl)oxan-4-yl]-2-methyl-5-{[2-(trifluoromethyl)pyridin-3-yl]methoxy}-2H-indazole-3-carboxamide] |
| > 20000 nM | Cn1nccc1COc1ccc2nn(C)c(C(=O)NC3(C(N)=O)COC3)c2c1 [Cpd 030, N-(3-carbamoyloxetan-3-yl)-2-methyl-5-[(1-methyl-1H-pyrazol-5-yl)methoxy]-2H-indazole-3-carboxamide] |
| 1000 to 20000 nM | Cc1ncsc1COc1ccc2nn(C)c(C(=O)NC3(C(N)=O)COC3)c2c1 [Cpd 031, N-(3-carbamoyloxetan-3-yl)-2-methyl-5-[(4-methyl-1,3-thiazol-5-yl)methoxy]-2H-indazole-3-carboxamide] |
| 1000 to 20000 nM | Cc1ncsc1COc1ccc2nn(C)c(C(=O)NC3CN(C)CC3(F)F)c2c1 (stereo not drawn) [Cpd 032, N-(4,4-difluoro-1-methylpyrrolidin-3-yl)-2-methyl-5-[(4-methyl-1,3-thiazol-5-yl)methoxy]-2H-indazole-3-carboxamide] |
| 1000 to 20000 nM | Cn1nc2ccc(OCc3ccccc3)cc2c1C(=O)NC1(C(N)=O)CCC1 [Cpd 033, 5-(benzyloxy)-N-(1-carbamoylcyclobutyl)-2-methyl-2H-indazole-3-carboxamide] |
| 1000 to 20000 nM | CN1CC(NC(=O)c2c3cc(OCc4ccccc4)ccc3nn2C)C(F)(F)C1 (stereo not drawn) [Cpd 034, 5-(benzyloxy)-N-(4,4-difluoro-1-methylpyrrolidin-3-yl)-2-methyl-2H-indazole-3-carboxamide] |
| 1000 to 20000 nM | Cn1nccc1COc1ccc2nn(C)c(C(=O)NCc3cccc(O)n3)c2c1 [Cpd 035, N-[(6-hydroxypyridin-2-yl)methyl]-2-methyl-5-[(1-methyl-1H-pyrazol-5-yl)methoxy]-2H-indazole-3-carboxamide] |
| 1000 to 20000 nM | Cn1nc2ccc(OCc3cccnc3C(F)(F)F)cc2c1C(=O)NCc1cccc(O)n1 [Cpd 036, N-[(6-hydroxypyridin-2-yl)methyl]-2-methyl-5-{[2-(trifluoromethyl)pyridin-3-yl]methoxy}-2H-indazole-3-carboxamide] |
